Source: US20230293428A1, “Drug delivery via contact lenses and similar ophthalmic devices” (Colorado School of Mines, priority 2021, published 2023)
Structures can show the parent of a compound that is named as a salt.

What was measured:
[1] = In vitro timolol release from drug-loaded contact lenses into PBS, fitted to Fick's diffusion (perfect sink) model; assay type: physicochemical
Method: After drug loading, the lenses were removed from the timolol maleate solution and gently wiped with KimWipe to remove the excess solution remaining on the surface. Each lens was then placed in 3 mL of fresh PBS solution for in vitro drug release. The optical absorption spectra of the release media were measured by the same spectrophotometer used in Example 2. The concentration of the timolol in the release medium was determined by fitting the optical absorption spectra in the range of 260 to 340 nm with the calibration spectrum of timolol maleate using MATLAB's minimization of least square error method. The drug release profiles were fitted using a perfect sink model to determine drug diffusivity. By solving the Fick's law diffusion equation, the mass percent of the drug released as a function of time is given by […] To further investigate this effect, the diffusion coefficients of timolol in the lenses were calculated by fitting the release curves to Fick's diffusion equation as described above. […] As Table 5 illustrates, the diffusion coefficients of timolol from these lenses are about a third of the diffusion coefficient from control (blank/unloaded) lenses (circular data points in FIG. 5), which results in extension of release by about 10 hours.

[2] = Partition coefficient of timolol maleate between contact lens and loading solution; assay type: physicochemical
Method: Timolol maleate was dissolved in PBS to prepare a 1.5 mg/mL solution. Each hydrated contact lens (both blank and vitamin E-loaded) was placed in 3 mL of this solution for 7 days to load the drug in the lenses.
The partition coefficient K of the drug is defined as the ratio of the concentration of the drug in the lens to the concentration of the drug in the medium when equilibrium is reached during the drug loading process. […] The concentration in the lens after 7 days of loading can be determined by dividing the total mass of the drug in the lens by the volume, and the mass of the drug can be determined from the release data based on the assumption that 100% of the drug is released due to the large volume of release medium compared to the lens volume. Therefore, the partition coefficient K is calculated as
where Clens and Cloading are the concentration of the drug in the lens and the loading solution at equilibrium, respectively, Vrelease and Vlens are the volume of the release medium and the contact lens, respectively, and Crelease is the final concentration of the drug in the release medium.

[3] = lens with 0 wt % vitamin E (blank), solvent n/a
[4] = lens with 8.4 wt % vitamin E, loaded from pure EtOH
[5] = lens with 8.6 wt % vitamin E, loaded from 75:25 EtOH:H2O
[6] = lens with 9.3 wt % vitamin E, loaded from 85:15 EtOH:H2O
[7] = lens with 19.3 wt % vitamin E, loaded from pure EtOH
[8] = lens with 19.9 wt % vitamin E, loaded from 85:15 EtOH:H2O
[9] = lenses with vitamin E loads of 8 to 10 wt %

For `CC(C)(C)NC[C@H](O)COc1nsnc1N1CCOCC1` [timolol maleate, Timolol maleate], the “D, diffusion coefficient of timolol maleate from contact lens” value (from here on “D, diffusion coefficient”) [1, 3] was 2.04 · 10^−13 ± 0 m^2/s, the “D, diffusion coefficient” value [1, 4] was “(7.42 ± 1.49) · 10^−14 m^2/s” and the “D, diffusion coefficient” value [1, 5] was “(6.20 ± 0.329) · 10^−14 m^2/s”. The “D, diffusion coefficient” value [1, 6] was 5.09 · 10^−14 ± 0 m^2/s, the “D, diffusion coefficient” value [1, 7] was “(1.62 ± 0.219) · 10^−14 m^2/s” and the “D, diffusion coefficient” value [1, 8] was “(13.2 ± 0.936) · 10^−15 m^2/s”. For the same compound, the “diffusion coefficient of timolol relative to control (blank/unloaded) lenses” value [1, 9] was “about a third”, the “extension of timolol release versus control (blank) lenses” value [1, 9] was “about 10 hours” and the timolol release time ([1]; lenses with vitamin E loads of 8 to 10 wt %, made from different loading solutions) was “about 12 hours”. For the same compound, the “duration of timolol release” value ([1]; lenses with vitamin E loads of 19 to 20 wt %, two different solutions) was “more than 70 hours”, the “duration of release of timolol from the lens” value ([1]; vitamin E loads of about 10 wt %) was “about 10 hours” and the “duration of release of timolol from the lens” value ([1]; vitamin E loads of about 20 wt %) was “about 70 hours”. For the same compound, the “K, partition coefficient of timolol maleate in contact lens” value (“K, partition coefficient” for short) [2, 3] was 0.7125 ± 0.0168, the “K, partition coefficient” value [2, 4] was 0.6050 ± 0.0171 and the “K, partition coefficient” value [2, 5] was 0.6757 ± 0.0152. For the same compound, the “K, partition coefficient” value [2, 6] was 0.7969 ± 0.0242, the “K, partition coefficient” value [2, 7] was 0.5739 ± 0.0069 and the “K, partition coefficient” value [2, 8] was 0.6108 ± 0.0489.
